In one data set the test system is ER/NF-κB. Kind of data set: ER/NF-κB luciferase reporter in Ad5-wt-ERα infected HAECT-1 cells. The conditions noted are these: Homo sapiens, HAECT1, IL-1β; for IC50: read-out: ER/NFκB IC50. It counts as cell-based, human. A general note: A reporter such as luciferase makes a cellular process visible.
The subject of a further data set is creatine kinase. The data set is described as follows: Creatine kinase (CK) test procedure in Ad5-wt-ERα infected HAECT-1 cells. The conditions noted are these: for Emax: read-out: Creatin Kinase Efficacy (%). The data set is classed as cell-based, human.
The next data set concerns IL-6. The data set is described as follows: IL-6 test procedure (IL-6 ELISA of media) in Ad5-wt-ERα infected HAECT-1 cells. The data set is classed as cell-based, human. The conditions noted are these: for Emax: read-out: Interleukin-6 Efficacy (%); for IC50: read-out: Interleukin-6 IC50. As to the method: After four hours, cells were washed with EBM-BSA and incubated overnight in the same medium. Following overnight incubation, cells were washed with EBM-BSA and infected for 2 hours with 6 mL of a 1:10 dilution of Ad5-3x(NFκB).Luc virus (Adenovirus luciferase expression vector driven by 3 repeats of the MHC NFκb site 5′ to the thymidine kinase promoter) in EBM-BSA. After two hours, cells were washed and incubated at 34° C. for 1 hour. […] Control (no ER infection) cells were processed as above without Ad5-wt-hERα virus infection.
ERα infected HAECT-1 cells or control cells were thawed, diluted 42× in warm EBM-BSA, plated into 96-well plates at 0.1 mL/well and incubated for 4 hours at 34° C. Test compounds were added to the cells as 2× stocks in EBM-BSA containing 2 ng/mL IL-1β (R&D Systems) and the 96-well plates were returned to the incubator (34° C.). After 15-20 hours, 100 μL aliquots of media were removed from the cells and assayed for IL-6 content using a BioSource human IL-6 ELISA Kit. Cells were subsequently washed with 300 μL of Dulbecco's phosphate buffered saline and lysed in 50 μL of Cell Culture Lysis Reagent (Promega). Luciferase was determined on a Wallac Victor^2 Luminometer (Gaithersburg, Md.) using 10 μL of lysate and mixing with 100 μL of Promega Luciferase Assay reagent. Creatine kinase was determined from the rate of increase in A340 following addition of 100 μL of CK assay reagent (Sigma, cat. No 47-10) to the remainder of the cell lysate.
For IC50 and EC50 calculations, mean IL-6, luciferase or CK values versus log10 of the compound concentration were fitted to a four parameter logistic equation. The IC50/EC50 value, ‘Hill slope’, upper and lower limits of the curve were iteratively estimated.
Background: ELISA stands for enzyme-linked immunosorbent assay.

Setting [1] is: Homo sapiens, HAECT1, Ad5-wt-ERα infected HAECT-1 cells, read-out: Creatin Kinase EC50.
Setting [2] is: Homo sapiens, HAECT1, Ad5-wt-ERα infected HAECT-1 cells.
[3] abbreviates: Ad5-wt-ERα infected HAECT-1 cells.

Read-outs that look alike come from different tables or passages of the source.

Consider `C[C@H]1c2cc(F)ccc2-c2ccccc2N1S(=O)(=O)c1ccc(O)cc1` [Example 33, 4-{[(S)-8-Fluoro-6-methylphenanthridin-5(6H)-yl]sulfonyl}phenol], for which the melting point was determined as 193 °C. The Emax with ER/NF-κB (read-out: ER/NFκB Efficacy (%)*) was 99%. Also, the IC50 with ER/NF-κB came to 0.033 µM. For the same compound, in the data set with creatine kinase (setting [1]), the EC50 amounted to 0.091 µM. In addition, the Emax with creatine kinase (setting [2]) amounted to 21%. Also, in the data set with IL-6 (Homo sapiens, HAECT1, IL-1β), the Emax was 108% and the IC50 was found to be 0.0234 µM.
The compound `CC1c2ccccc2-c2ccc(F)cc2N1S(=O)(=O)c1ccc(O)cc1` (centres unmarked) [Example 105, 4-[(3-Fluoro-6-methylphenanthridin-5(6H)-yl)sulfonyl]phenol] gave a melting point of 162 to 165 °C. Further, the EC50 in the data set on creatine kinase (setting [1]) was determined as 0.032 µM. Besides, in the data set with creatine kinase (setting [2]), the Emax is 17%. In addition, in the data set with IL-6 (Homo sapiens, HAECT1, IL-1β), the Emax is more than 100% and the IC50 turned out to be 0.092 µM.
On the same counts, the results for `CC1c2ccccc2-c2ccc(F)cc2N1S(=O)(=O)c1cccc(O)c1` (centres unmarked) [Example 106, 3-[(3-Fluoro-6-methylphenanthridin-5(6H)-yl)sulfonyl]phenol] are 164 to 167 °C, 1.42 µM, 22%, 104% and 0.043 µM.
In turn, `C[C@@H]1c2ccccc2-c2ccc(F)cc2N1S(=O)(=O)c1ccc(O)cc1O` [Example 110, 4-{[(6R)-3-Fluoro-6-methylphenanthridin-5(6H)-yl]sulfonyl}benzene-1,3-diol] showed a melting point of 150 to 152 °C. In addition, the EC50 in the data set with creatine kinase (setting [1]) was 0.954 µM. Further, in the data set on creatine kinase (setting [2]), the Emax was -7%. In the data set with IL-6 (Homo sapiens, HAECT1, IL-1β), the Emax turned out to be 38% and the IC50 amounted to 2.34 µM.
Compound `C[C@H]1c2ccccc2-c2ccc(F)cc2N1S(=O)(=O)c1ccc(O)cc1O` [Example 111, 4-{[(6S)-3-Fluoro-6-methylphenanthridin-5(6H)-yl]sulfonyl}benzene-1,3-diol] displayed a melting point of 151 to 153 °C. For the same compound, in the data set with creatine kinase (setting [1]), the EC50 stood at 0.102 µM. In addition, the Emax with creatine kinase (setting [2]) came to 33%. In addition, in the data set with IL-6 (Homo sapiens, HAECT1, IL-1β), the Emax was found to be 114% and the IC50 stood at 0.022 µM.
On the same counts, the results for `CC1c2ccccc2-c2cc(F)ccc2N1S(=O)(=O)c1ccc(O)cc1` (centres unmarked) [Example 112, 4-[(2-Fluoro-6-methylphenanthridin-5(6H)-yl)sulfonyl]phenol] are 216 to 218 °C, 0.337 µM, 1%, 100% and 0.175 µM.
In turn, `CC1c2ccccc2-c2cc(F)ccc2N1S(=O)(=O)c1cccc(O)c1` (centres unmarked) [Example 113, 3-[(2-Fluoro-6-methylphenanthridin-5(6H)-yl)sulfonyl]phenol] yielded a melting point of 195 to 196 °C. Also, in the data set with creatine kinase (setting [1]), the EC50 was 0.284 µM. Also, the Emax with creatine kinase (setting [2]) was determined as 40%. In the data set with IL-6 (Homo sapiens, HAECT1, IL-1β), the Emax turned out to be 100% and the IC50 was 0.173 µM.
As to `CC1c2ccc(F)cc2-c2ccc(F)cc2N1S(=O)(=O)c1ccc(O)cc1` (centres unmarked) [Example 114, 4-[(3,9-Difluoro-6-mthylphenanthridin-5(6H)-yl)sulfonyl]ph nol], the “Creatin Kinase Efficacy (%)” value with creatine kinase (setting [3]) came out at 23%. Moreover, in the data set with IL-6 (IL-1β), the “Interleukin-6 Efficacy (%)” value was 98% and the IC50 worked out at 0.078 µM.
On to `CC1c2ccc(F)cc2-c2ccc(F)cc2N1S(=O)(=O)c1cccc(O)c1` (centres unmarked) [Example 115, 3-[(3,9-Difluoro-6-methylphenanthridin-5(6H)-yl)sulfonyl]phenol], for which the melting point fell in the range of 167.2 to 173 °C. The EC50 with creatine kinase (setting [1]) was 0.102 µM. Besides, the Emax in the data set on creatine kinase (setting [2]) was determined as 16%. Moreover, in the data set on IL-6 (Homo sapiens, HAECT1, IL-1β), the Emax is 102% and the IC50 turned out to be 0.081 µM.
With `CC1c2ccc(F)cc2-c2cc(F)ccc2N1S(=O)(=O)c1ccc(O)cc1` (centres unmarked) [Example 116, 4-[(2,9-Difluoro-6-methylphenanthridin-5(6H)-yl)sulfonyl]phenol], the melting point lay in the range of 194 to 196 °C. In addition, the EC50 in the data set on creatine kinase (setting [1]) stood at 0.326 µM. The Emax in the data set on creatine kinase (setting [2]) was 23%. In the data set with IL-6 (Homo sapiens, HAECT1, IL-1β), the Emax stood at 99% and the IC50 came to 0.13 µM.
On the same counts, the results for `CC1c2ccc(F)cc2-c2cc(F)ccc2N1S(=O)(=O)c1cccc(O)c1` (centres unmarked) [Example 117, 3-[(2,9-Difluoro-6-methylphenanthridin-5(6H)-yl)sulfonyl]phenol] are 165.5 to 171 °C, 0.04 µM, 8%, 101% and 0.104 µM.
The compound `CC1c2ccccc2-c2ccc(Cl)cc2N1S(=O)(=O)c1cccc(O)c1` (centres unmarked) [Example 118, 3-[(3-Chloro-6-methylphenanthridin-5(6H)-yl)sulfonyl]phenol] returned a melting point of 215 °C. Moreover, the Emax with creatine kinase (setting [2]) is -16%. Further, in the data set on IL-6 (Homo sapiens, HAECT1, IL-1β), the Emax came to 103% and the IC50 is 0.096 µM.
On the same counts, the results for `C[C@@H]1c2ccccc2-c2ccc(Cl)cc2N1S(=O)(=O)c1cccc(O)c1` [Example 119, 3-{[(6R)-3-Chloro-6-methylphenanthridin-5(6H)-yl]sulfonyl}phenol] are 220.9 to 223 °C, 21%, 35% and 0.018 µM.
For the compound `C[C@H]1c2ccccc2-c2ccc(Cl)cc2N1S(=O)(=O)c1cccc(O)c1` [Example 120, 3-{[(6S)-3-Chloro-6-mthylphenanthridin-5(6H)-yl]sulfonyl}ph nol], the “Creatin Kinase Efficacy (%)” value in the data set with creatine kinase (setting [3]) is given as 10%. In the data set on IL-6 (IL-1β), the “Interleukin-6 Efficacy (%)” value was 153% and the IC50 amounted to 0.006 µM.
Compound `CC1c2ccccc2-c2ccc(Cl)cc2N1S(=O)(=O)c1ccc(O)cc1` (centres unmarked) [Example 121, 4-[(3-Chloro-6-methylphenanthridin-5(6H)-yl)sulfonyl]phenol] registered a melting point of 204 °C. The EC50 in the data set with creatine kinase (setting [1]) was 0.107 µM. For the same compound, in the data set on creatine kinase (setting [2]), the Emax amounted to 29%. Further, in the data set with IL-6 (Homo sapiens, HAECT1, IL-1β), the Emax was 113% and the IC50 amounted to 0.03 µM.
On to `C[C@@H]1c2ccccc2-c2ccc(Cl)cc2N1S(=O)(=O)c1ccc(O)cc1` [Example 122, 4-{[(6R)-3-Chloro-6-methylphenanthridin-5(6)-yl]sulfonyl}phenol], for which the “Creatin Kinase Efficacy (%)” value in the data set on creatine kinase (setting [3]) was found to be 14%. For the same compound, the EC50 in the data set with creatine kinase (Ad5-wt-ERα infected HAECT-1 cells, read-out: Creatin Kinase EC50) was 0.805 µM. In the data set with IL-6 (IL-1β), the “Interleukin-6 Efficacy (%)” value worked out at 37% and the IC50 was determined as 0.464 µM.
With `C[C@H]1c2ccccc2-c2ccc(Cl)cc2N1S(=O)(=O)c1ccc(O)cc1` [Example 123, 4-{[(6S)-3-Chloro-6-methylphenanthridin-5(6H)-yl]sulfonyl}phenol], the melting point was in the range of 213.5 to 220 °C. Further, the Emax with creatine kinase (setting [2]) amounted to 2%. Further, in the data set with IL-6 (Homo sapiens, HAECT1, IL-1β), the Emax worked out at 154% and the IC50 is 0.007 µM.
On to `C[C@@H]1c2ccccc2-c2ccc(Cl)cc2N1S(=O)(=O)c1ccc(O)cc1O` [Example 124, 4-{[(6R)-3-Chloro-6-methylphenanthridin-5(6H)-yl]sulfonyl}benzene-1,3-diol], for which the melting point fell in the range of 178.2 to 182 °C. The EC50 with creatine kinase (setting [1]) was found to be 0.624 µM. Also, the Emax in the data set on creatine kinase (setting [2]) was 4%. Also, in the data set with IL-6 (Homo sapiens, HAECT1, IL-1β), the Emax was 19% and the IC50 was 0.224 µM.
For `C[C@H]1c2ccccc2-c2ccc(Cl)cc2N1S(=O)(=O)c1ccc(O)cc1O` [Example 125, 4-{[(6S)-3-Chlro-6-methylphenanthridin-5(6H)-yl]sulfonyl}b nzne-1,3-diol], in the data set with creatine kinase (setting [3]), the “Creatin Kinase Efficacy (%)” value stood at 22%. Also, in the data set with IL-6 (IL-1β), the “Interleukin-6 Efficacy (%)” value came to 94% and the IC50 came to 0.054 µM.
Take `C[C@H]1c2cc(F)ccc2-c2ccccc2N1S(=O)(=O)c1ccc(OS(N)(=O)=O)cc1` [Example 126, 4-{[(6S)-8-Fluoro-6-methylphenanthridin-5(6H)-yl]sulfonyl}phenyl sulfamate]: the melting point fell in the range of 166.5 to 167 °C. The EC50 with creatine kinase (setting [1]) is 0.661 µM. Besides, the Emax with creatine kinase (setting [2]) was determined as 61%. In the data set on IL-6 (Homo sapiens, HAECT1, IL-1β), the Emax was found to be 99% and the IC50 turned out to be 0.04 µM.
`C[C@]12CC[C@@H]3c4ccc(O)cc4CC[C@H]3[C@@H]1CC[C@@H]2O` [Example E2, 17β-estradiol, reference compound]: the IC50 with ER/NF-κB was approximately 0.001 µM; in the data set with IL-6 (Homo sapiens, HAECT1, IL-1β), approximately 0.001 µM. Besides, the EC50 with creatine kinase (Homo sapiens, HAECT1, read-out: Creatin Kinase EC50) was 0.0058 µM.

What is called EC50 is the concentration that produces a half-maximal response. Broadly, the melting point is the temperature, or range, at which the solid turns liquid.

For the origin of these results see patent US6894061B2, “Substituted dihydrophenanthridinesulfonamides” (Wyeth, priority 2002, dated 2005).
